The values that follow come from article PMC8474119, “Discovery and SAR Evolution of Pyrazole Azabicyclo[3.2.1]octane Sulfonamides as a Novel Class of Non-Covalent N-Acylethanolamine-Hydrolyzing Acid Amidase (NAAA) Inhibitors for Oral Administration” (Journal of Medicinal Chemistry, 2021).

The target of this experiment is T1, h-NAAA (Homo sapiens, UniProt Q02083).
T1 construct: made in house; host or cells: HEK-293 cells stably overexpressing human NAAA; enzyme-enriched (lysosomal) lysate
T1 sequence (Q02083 29-125 limits assumed): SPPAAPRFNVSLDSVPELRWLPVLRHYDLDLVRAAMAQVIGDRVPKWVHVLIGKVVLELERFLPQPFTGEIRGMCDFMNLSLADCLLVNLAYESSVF
T1 sequence (Q02083 126-359 limits assumed): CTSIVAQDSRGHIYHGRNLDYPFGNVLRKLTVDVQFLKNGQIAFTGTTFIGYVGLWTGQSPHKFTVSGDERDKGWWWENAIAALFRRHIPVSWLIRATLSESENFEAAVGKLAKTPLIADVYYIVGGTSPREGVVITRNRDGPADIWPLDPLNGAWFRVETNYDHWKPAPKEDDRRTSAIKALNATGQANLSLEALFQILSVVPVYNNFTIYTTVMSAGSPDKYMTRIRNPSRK
The experiment in a line: Fluorogenic human-NAAA assay (h-NAAA, fluo.). The format is biochemical. Conditions: for IC50 / pIC50 / h-NAAA inhibitory activity, in words: h-NAAA (fluo.); for IC50: mean ± SD (n ≥ 3), n.a.: not active @50 μM (<10% inhibition); for LipE: LipE = pIC50 – c Log P (h-NAAA); for pIC50: Table S1. On the procedure: Human recombinant proteins were obtained from HEK-293 stable overexpressing human NAAA, AC, and FAAH-1 cell lines, respectively. Cells were grown in Dulbecco’s modified Eagle medium (DMEM) containing 10% FBS, 1% glutamine, 1 mM sodium pyruvate, and 500 μg/mL geneticin (G418). To obtain a high-density cell proliferation, h-NAAA-HEK-293 cells were grown in BelloCell-500 bottle, a compact bioreactor. On the contrary, h-AC and h-FAAH-1-HEK-293 cells were grown in 150 mm dishes and scraped off with cold PBS 1× pH 7.4 at 80% confluence. Cell pellets were collected and stored at −80 °C until protein preparation.
HEK-293 cells stably transfected with the human NAAA or human AC coding sequences were used as the enzyme source. Cells were suspended in 20 mM Tris-HCl (pH 7.4) with 0.32 M sucrose, sonicated, and centrifuged at 800g for 30 min at 4 °C. Supernatants were then centrifuged at 12,000g for 30 min at 4 °C. Pellets were resuspended in PBS buffer (pH 7.4) and subjected to three freeze-thaw cycles at −80 °C. The suspension was finally centrifuged at 105,000g for 1 h at 4 °C, supernatants were collected, protein concentration was measured, and samples were aliquoted and stored at −80 °C until use.
The assay was run in 96-well microplates (Black OptiPlate-96 F; PerkinElmer, Massachusetts, USA), in a total reaction volume of 200 μL. h-NAAA protein preparation (4 μg) was preincubated for 30 min with various concentrations of test compounds or vehicle control (DMSO 5%) in 100 mM citrate/phosphate buffer (pH 4.5) containing 3.0 mM DTT, 0.1% NP40, 0.05% BSA, and 150 mM NaCl. The background (no activity) samples were prepared using assay buffer without h-NAAA and DMSO (5%). N-(4-methyl-2-oxo-chromen-7-yl)-hexadecanamide (PAMCA)[60] was used as a substrate (2 μM) and the reaction was carried out for 50 min at 37 °C. Fluorescence was measured with EnVision 2014 Multilabel Reader (PerkinElmer, Massachusetts, USA) using an excitation wavelength of 355 nm and an emission of 460 nm. IC50 values were calculated by non-linear regression analysis of log[concentration]/response curves generated with mean replicate values using a four-parameter Hill equation curve fitting with GraphPad Prism 5 (GraphPad Software Inc., CA, USA).

One may read the IC50 as the concentration that inhibits the measured activity by half. Read a high IC50 as weaker potency in that assay. Compound `Cc1n[nH]c(C)c1S(=O)(=O)N1[C@@H]2CC[C@H]1C[C@@H](Oc1ccc(F)cc1)C2` [Compound 46, (1R,3r,5S)-8-((3,5-Dimethyl-1H-pyrazol-4-yl)sulfonyl)-3-(4-fluorophenoxy)-8-azabicyclo[3.2.1]octane] had an IC50 of 143 ± 7 nM. As usually defined, the pIC50 is the IC50 on a negative log10 scale, so that one unit is a factor of ten. Take `CCOCc1ccc(O[C@H]2C[C@H]3CC[C@@H](C2)N3S(=O)(=O)c2c(C)n[nH]c2C)cc1` [Compound 48, (1R,3r,5S)-8-((3,5-Dimethyl-1H-pyrazol-4-yl)sulfonyl)-3-(4-(ethoxymethyl)phenoxy)-8-azabicyclo[3.2.1]octane]: the LipE is given as 5.70, the pIC50 came to 7.79 and the IC50 was found to be 16 ± 2 nM. Turning to `COc1n[nH]c(C)c1S(=O)(=O)N1CCC(Oc2cnccn2)CC1` [Compound 13, 2-((1-((3-Methoxy-5-methyl-1H-pyrazol-4-yl)sulfonyl)piperidin-4-yl)oxy)pyrazine], the “h-NAAA inhibitory activity, in words” value was “no detectable activity”. As to `Cc1n[nH]c(C)c1S(=O)(=O)N1CC(Oc2cnccn2)C1` [Compound 18, 2-((1-((3,5-Dimethyl-1H-pyrazol-4-yl)sulfonyl)azetidin-3-yl)oxy)pyrazine], the “h-NAAA inhibitory activity, in words” value is reported as “complete loss of enzyme inhibition”. Compound `Cc1n[nH]c(C)c1S(=O)(=O)N1[C@@H]2CC[C@H]1C[C@@H](Oc1cnccn1)C2` [Compound 20, (1R,3r,5S)-8-((3,5-Dimethyl-1H-pyrazol-4-yl)sulfonyl)-3-(pyrazin-2-yloxy)-8-azabicyclo[3.2.1]octane] yielded a 50% inhibitory concentration (IC50) of 230 ± 10 nM. In the case of `Cc1n[nH]c(C)c1S(=O)(=O)N1[C@@H]2CC[C@H]1C[C@@H](Oc1ccc(C(F)(F)F)cc1)C2` [Compound 43, (1R,3r,5S)-8-((3,5-Dimethyl-1H-pyrazol-4-yl)sulfonyl)-3-(4-(trifluoromethyl)phenoxy)-8-azabicyclo[3.2.1]octane], the IC50 was 212 ± 20 nM. On to `Cc1n[nH]c(C)c1S(=O)(=O)N1[C@@H]2CC[C@H]1C[C@H](Oc1cnccn1)C2` [Compound 21, (1R,3s,5S)-8-((3,5-Dimethyl-1H-pyrazol-4-yl)sulfonyl)-3-(pyrazin-2-yloxy)-8-azabicyclo[3.2.1]octane], for which the “h-NAAA inhibitory activity, in words” value is on record as “devoid of any activity”. Compound `Cc1cccc(OC2CC3CCC(C2)N3S(=O)(=O)c2c(C)n[nH]c2C)c1` [Compound 35, (1R,3r,5S)-8-((3,5-Dimethyl-1H-pyrazol-4-yl)sulfonyl)-3-(m-tolyloxy)-8-azabicyclo[3.2.1]octane] displayed a 50% inhibitory concentration (IC50) of 614 ± 140 nM.

With `CCc1n[nH]c(C)c1S(=O)(=O)N1CCC(Oc2cnccn2)CC1` [Compound 8, 2-((1-((3-Ethyl-5-methyl-1H-pyrazol-4-yl)sulfonyl)piperidin-4-yl)oxy)pyrazine], the IC50 was determined as 620 ± 120 nM. With `Cc1n[nH]c(C)c1S(=O)(=O)N1[C@@H]2CCC[C@H]1C[C@@H](Oc1cnccn1)C2` [Compound 25, (1R,3r,5S)-9-((3,5-Dimethyl-1H-pyrazol-4-yl)sulfonyl)-3-(pyrazin-2-yloxy)-9-azabicyclo[3.3.1]nonane], the IC50 turned out to be 370 ± 30 nM. With `CCCCCCc1ccc(O[C@H]2C[C@H]3CC[C@@H](C2)N3S(=O)(=O)c2c(C)n[nH]c2C)cc1` [Compound 41, (1R,3r,5S)-8-((3,5-Dimethyl-1H-pyrazol-4-yl)sulfonyl)-3-(4-hexylphenoxy)-8-azabicyclo[3.2.1]octane], inhibition was half-maximal at 19 ± 1 nM (IC50). Turning to `Cc1n[nH]c(C)c1S(=O)(=O)N1CCC(Cc2cnccn2)CC1` [Compound 23, 2-((1-((3,5-Dimethyl-1H-pyrazol-4-yl)sulfonyl)piperidin-4-yl)methyl)pyrazine], the “h-NAAA inhibitory activity, in words” value was “abolished the inhibitory activity”. `Cc1n[nH]c(C)c1S(=O)(=O)N1[C@@H]2CC[C@H]1C[C@@H](Oc1ccccc1)C2` [Compound 31, (1R,3r,5S)-8-((3,5-Dimethyl-1H-pyrazol-4-yl)sulfonyl)-3-phenoxy-8-azabicyclo[3.2.1]octane] gave an IC50 of 93 ± 20 nM. Take `Cc1n[nH]c(C)c1S(=O)(=O)N1[C@@H]2CC[C@H]1C[C@H](Oc1ccccc1)C2` [Compound 32, (1R,3s,5S)-8-((3,5-Dimethyl-1H-pyrazol-4-yl)sulfonyl)-3-phenoxy-8-azabicyclo[3.2.1]octane]: half-maximal inhibition (IC50) was put at 655 ± 45 nM. With `Cc1n[nH]c(C)c1S(=O)(=O)N1CCC(Oc2cnccn2)CC1` [Compound 1, 2-((1-((3,5-Dimethyl-1H-pyrazol-4-yl)sulfonyl)piperidin-4-yl)oxy)pyrazine], the LipE is 6.3, the pIC50 is recorded as 5.96 and the IC50 is 1090 ± 163 nM.

`Cc1n[nH]c(C)c1S(=O)(=O)N1C[C@H]2CC[C@@H](C1)[C@H]2Oc1cnccn1` [Compound 27, (1R,5S,8r)-3-((3,5-Dimethyl-1H-pyrazol-4-yl)sulfonyl)-8-(pyrazin-2-yloxy)-3-azabicyclo[3.2.1]octane]: half-maximal inhibition (IC50) required 15400 ± 3260 nM. In the case of `COc1ccc(O[C@H]2C[C@H]3CC[C@@H](C2)N3S(=O)(=O)c2c(C)n[nH]c2C)cc1` [Compound 44, (1R,3r,5S)-8-((3,5-Dimethyl-1H-pyrazol-4-yl)sulfonyl)-3-(4-methoxyphenoxy)-8-azabicyclo[3.2.1]octane], the IC50 is 175 ± 15 nM. As for `Cc1[nH]nc(C(C)C)c1S(=O)(=O)N1CCC(Oc2cnccn2)CC1` [Compound 11, 2-((1-((3-isoPropyl-5-methyl-1H-pyrazol-4-yl)sulfonyl)piperidin-4-yl)oxy)pyrazine], the IC50 turned out to be 640 ± 140 nM.

`Cc1n[nH]c(C)c1S(=O)(=O)N1[C@@H]2COC[C@H]1C[C@@H](Oc1cnccn1)C2` [Compound 26, (1R,5S,7s)-9-((3,5-Dimethyl-1H-pyrazol-4-yl)sulfonyl)-7-(pyrazin-2-yloxy)-3-oxa-9-azabicyclo[3.3.1]nonane] registered an IC50 of 2330 ± 830 nM.

As to `Cc1n[nH]c(C)c1S(=O)(=O)N1[C@@H]2CC[C@H]1C[C@@H](Oc1ccc(C(C)C)cc1)C2` [Compound 38, (1R,3r,5S)-8-((3,5-Dimethyl-1H-pyrazol-4-yl)sulfonyl)-3-(4-isopropylphenoxy)-8-azabicyclo[3.2.1]octane], 744 ± 90 nM corresponded to half-maximal inhibition (IC50). This IC50 is about 3.1-fold lower than that of the compound before. `Cc1ccc(O[C@H]2C[C@H]3CC[C@@H](C2)N3S(=O)(=O)c2c(C)n[nH]c2C)cc1` [Compound 33, (1R,3r,5S)-8-((3,5-Dimethyl-1H-pyrazol-4-yl)sulfonyl)-3-(p-tolyloxy)-8-azabicyclo[3.2.1]octane] came in with an IC50 of 36 ± 4 nM. Same read-out and setting: under `CCCCc1n[nH]c(C)c1S(=O)(=O)N1CCC(Oc2cnccn2)CC1` [Compound 10, 2-((1-((3-Butyl-5-methyl-1H-pyrazol-4-yl)sulfonyl)piperidin-4-yl)oxy)pyrazine] stands 910 ± 130 nM. On the same count and under the same terms, the same measure for `Cc1[nH]nc(C(C)(C)C)c1S(=O)(=O)N1CCC(Oc2cnccn2)CC1` [Compound 12, 2-((1-((3-(tert-Butyl)-5-methyl-1H-pyrazol-4-yl)sulfonyl)piperidin-4-yl)oxy)pyrazine]: 780 ± 120 nM. `CCc1ccc(O[C@H]2C[C@H]3CC[C@@H](C2)N3S(=O)(=O)c2c(C)n[nH]c2C)cc1` [Compound 37, (1R,3r,5S)-8-((3,5-Dimethyl-1H-pyrazol-4-yl)sulfonyl)-3-(4-ethylphenoxy)-8-azabicyclo[3.2.1]octane] registered an IC50 of 51 ± 5 nM. With `Cc1n[nH]c(C)c1S(=O)(=O)N1C[C@H]2CCC[C@@H](C1)[C@H]2Oc1cnccn1` [Compound 28, (1R,5S,9r)-3-((3,5-Dimethyl-1H-pyrazol-4-yl)sulfonyl)-9-(pyrazin-2-yloxy)-3-azabicyclo[3.3.1]nonane], the “h-NAAA inhibitory activity, in words” value is “inactive”.
